According to patent US20130029983A1, “AMINOTHIENOPYRIDAZINE INHIBITORS OF TAU ASSEMBLY” (priority 2009, published 2013):
Read-outs that look alike come from different tables or passages of the source.

Assays:
Assay type in all cases: biochemical
K18PL tau = target: T1, K18PL tau (Homo sapiens, UniProt P10636, P618L); test: Heparin-induced K18PL tau fibrillization assay monitored by ThT fluorescence; settings: for Emax: read-out: K18PL (ThT) maximal percent inhibition achieved in the assay
T1 construct: (K18PL; amino acids 244-369); made in house
T1 sequence (P10636 561-686 P618L): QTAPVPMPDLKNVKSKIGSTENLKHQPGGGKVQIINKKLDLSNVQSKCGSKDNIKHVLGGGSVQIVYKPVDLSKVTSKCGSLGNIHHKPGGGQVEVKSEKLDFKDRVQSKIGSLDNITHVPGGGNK
Procedure, shortened: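 K18PL (30 μM stock, with 0.24 μM Alexa Red-labeled K18PL) plus 40 μM heparin and compound, fibrillized 6 h at 37 °C. Fibrils read by ThT (12.5 μM final, in 100 mM glycine pH 8.5, 1 h RT), ex 450/em 510 nm. Percent inhibition scaled between DMSO wells and non-fibrillizing K18 KD control wells.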

full-length tau (tau40) = target: T2, full-length tau (tau40) (Homo sapiens, UniProt P10636); test: Tau40 fibrillization sedimentation assay; settings: SDS-PAGE of soluble and insoluble fractions after centrifugation; for Emax: read-out: Tau40 Sed. Assay, maximal percent inhibition of tau40 fibrillization
T2 construct: Full length tau (Tau40; amino acids 1-441); made in house
T2 sequence (P10636 1-441 isoform P10636-8): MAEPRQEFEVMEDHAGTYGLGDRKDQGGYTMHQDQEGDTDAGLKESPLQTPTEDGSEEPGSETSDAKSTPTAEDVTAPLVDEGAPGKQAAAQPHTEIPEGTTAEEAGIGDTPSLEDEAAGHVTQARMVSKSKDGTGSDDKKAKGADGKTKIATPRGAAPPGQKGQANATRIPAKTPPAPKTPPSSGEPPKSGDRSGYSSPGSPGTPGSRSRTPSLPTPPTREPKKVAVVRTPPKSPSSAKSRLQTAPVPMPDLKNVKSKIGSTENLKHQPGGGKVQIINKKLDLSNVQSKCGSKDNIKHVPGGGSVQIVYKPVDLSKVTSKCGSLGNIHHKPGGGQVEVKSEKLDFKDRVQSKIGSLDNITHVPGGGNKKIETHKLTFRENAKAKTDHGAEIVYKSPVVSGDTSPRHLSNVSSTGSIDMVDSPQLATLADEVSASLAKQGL
Experimental: The determination of compound-induced effects on the amount of tau that remains soluble upon centrifugation, and EM visualization of tau species following incubation with test compounds, were as previously described (Crowe, A., Ballatore, C., Hyde, E., Trojanowski, J. Q., and Lee, V. M. Y. (2007) Biochemical and Biophysical Research Communications 358, 1-6). […]

Aβ(1-42) = target: T3, Aβ(1-42) (Homo sapiens, UniProt P05067); test: Aβ(1-42) fibrillization assay (ThT); settings: Table 3; highest tested concentration (80 μM); read-out: Aβ42 ThT Assay % Inhib.
T3 construct: Synthetic Aβ(1-42) peptide (rPeptide); purchased rPeptide
T3 sequence (P05067 672-713 limits assumed): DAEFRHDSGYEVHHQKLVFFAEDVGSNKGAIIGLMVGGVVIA

[1] = Table 5, read-out: K18PL (ThT) IC50 value

IC50 (K18PL tau; [1]) [µM]	Emax (K18PL tau; Table 5) [%]	Tau40 Sed. Assay, maximal percent inhibition of tau40 fibrillization (full-length tau (tau40)) [%]	Emax (full-length tau (tau40)) [%]	inhibition at 80 µM (K18PL tau; Table 3, highest tested concentration (80 μM), read-out: Tau ThT Assay % Inhib.) [%]	IC50 (K18PL tau; Table 3, logarithm of IC50, K18PL tau ThT fluorescence inhibition, NC = not calculated due to insufficient activity, read-out: Tau ThT Assay Log IC50 (converted)) [µM]	inhibition at 80 µM (Aβ(1-42)) [%]	SMILES
4.6	87	58	50 to 60	–	–	–	Nc1scc2c(C(=O)NC3CC3)nn(-c3ccc(Cl)cc3)c(=O)c12 [CNDR-51362, 5-Amino-3-(4-chlorophenyl)-N-cyclopropyl-4-oxo-3,4-dihydrothieno[3,4-d]pyridazine-1-carboxamide]
3.1	71	48	50 to 60	84	3.98	41	CCOC(=O)c1nn(-c2ccc(Cl)cc2)c(=O)c2c(N)scc12 [Compound 17, Ethyl 5-amino-3-(4-chlorophenyl)-4-oxo-3,4-dihydrothieno[3,4-d]pyridazine-1-carboxylate]
